Test results taken from PubChem BioAssay (NCI).
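How tested: cells in 96-well plates exposed to compound for 48 hours at five concentrations. GI50 = concentration required for 50% inhibition of growth. TGI is the concentration that stops growth completely.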

Key:
Experiment in all cases: inhibition of tumour cell growth, NCI panel, 48 h
[1] = tested on: SK-MEL-28 melanoma
[2] = tested on: SF-295 CNS
[3] = tested on: MALME-3M melanoma
[4] = tested on: SNB-19 CNS
[5] = tested on: COLO 205 colon
[6] = tested on: A549 NSCLC
[7] = tested on: RXF 393 renal
[8] = tested on: K-562 leukemia
[9] = tested on: MCF7 breast
[10] = tested on: KM12 colon
[11] = tested on: TK-10 renal
[12] = tested on: OVCAR-5 ovarian
[13] = tested on: SF-539 CNS
[14] = tested on: BT-549 breast
[15] = tested on: SN12C renal
[16] = tested on: IGROV1 ovarian
[17] = tested on: PC-3 prostate
[18] = tested on: SW-620 colon
[19] = tested on: OVCAR-3 ovarian
[20] = tested on: MDA-MB-231 breast
[21] = tested on: M14 melanoma
[22] = tested on: NCI-H226 lung
[23] = tested on: OVCAR-8 ovarian
[24] = tested on: UACC-257 melanoma
[25] = tested on: 786-0 renal
[26] = tested on: ACHN renal
[27] = tested on: HS 578T breast
[28] = tested on: UACC-62 melanoma
[29] = tested on: NCI-H23 lung
[30] = tested on: OVCAR-4 ovarian
[31] = tested on: HCT-15 colon
[32] = tested on: CAKI-1 renal
[33] = tested on: HCC-2998 colon
[34] = tested on: SR leukemia
[35] = tested on: SNB-75 CNS
[36] = tested on: RPMI-8226 leukemia
[37] = tested on: HCT-116 colon
[38] = tested on: SK-MEL-5 melanoma
[39] = tested on: UO-31 renal
[40] = tested on: HT29 colon
[41] = tested on: T-47D breast
[42] = tested on: U251 CNS
[43] = tested on: DU-145 prostate
[44] = tested on: CCRF-CEM leukemia
[45] = tested on: HL-60(TB) leukemia
[46] = tested on: SK-OV-3 ovarian
[47] = tested on: LOX IMVI melanoma
[48] = tested on: MOLT-4 leukemia
[49] = tested on: NCI-H522 lung
[50] = tested on: NCI-H460 lung
[51] = tested on: EKVX NSCLC
[52] = tested on: SF-268 CNS
[53] = tested on: NCI/ADR-RES ovarian
[54] = tested on: MDA-MB-435
[55] = tested on: HOP-62 NSCLC
[56] = tested on: HOP-92 NSCLC
[57] = tested on: A498 renal
[58] = tested on: SK-MEL-2 melanoma

Structure (SMILES): CCCCCCCCCC(CCCC(O)CC(=O)O)OC1OC(COC2OC(C)C(OC(C)=O)C(O)C2O)C(O)C(O)C1OC1OC(CO)C(O)C(O)C1OC1OC(C)C(OC(=O)CC(C)C)C(O)C1O (stereo not given)
- GI50 [1]: > 35 µM
- TGI [1]: > 35 µM
- GI50 [2]: > 35 µM
- TGI [2]: > 35 µM
- GI50 [3]: > 35 µM
- TGI [3]: > 35 µM
- GI50 [4]: > 35 µM
- TGI [4]: > 35 µM
- GI50 [5]: > 35 µM
- TGI [5]: > 35 µM
- GI50 [6]: > 35 µM
- TGI [6]: > 35 µM
- GI50 [7]: > 35 µM
- TGI [7]: > 35 µM
- GI50 [8]: > 35 µM
- TGI [8]: > 35 µM
- GI50 [9]: > 35 µM
- TGI [9]: > 35 µM
- GI50 [10]: > 35 µM
- TGI [10]: > 35 µM
- GI50 [11]: > 35 µM
- TGI [11]: > 35 µM
- GI50 [12]: > 35 µM
- TGI [12]: > 35 µM
- GI50 [13]: > 35 µM
- TGI [13]: > 35 µM
- GI50 [14]: > 35 µM
- TGI [14]: > 35 µM
- GI50 [15]: > 35 µM
- TGI [15]: > 35 µM
- GI50 [16]: > 35 µM
- TGI [16]: > 35 µM
- GI50 [17]: > 35 µM
- TGI [17]: > 35 µM
- GI50 [18]: > 35 µM
- TGI [18]: > 35 µM
- GI50 [19]: > 35 µM
- TGI [19]: > 35 µM
- GI50 [20]: > 35 µM
- TGI [20]: > 35 µM
- GI50 [21]: > 35 µM
- TGI [21]: > 35 µM
- GI50 [22]: > 35 µM
- TGI [22]: > 35 µM
- GI50 [23]: > 35 µM
- TGI [23]: > 35 µM
- GI50 [24]: > 35 µM
- TGI [24]: > 35 µM
- GI50 [25]: > 35 µM
- TGI [25]: > 35 µM
- GI50 [26]: > 35 µM
- TGI [26]: > 35 µM
- GI50 [27]: > 35 µM
- TGI [27]: > 35 µM
- GI50 [28]: > 35 µM
- TGI [28]: > 35 µM
- GI50 [29]: > 35 µM
- TGI [29]: > 35 µM
- GI50 [30]: > 35 µM
- TGI [30]: > 35 µM
- GI50 [31]: > 35 µM
- TGI [31]: > 35 µM
- GI50 [32]: > 35 µM
- TGI [32]: > 35 µM
- GI50 [33]: > 35 µM
- TGI [33]: > 35 µM
- GI50 [34]: > 35 µM
- TGI [34]: > 35 µM
- GI50 [35]: > 35 µM
- TGI [35]: > 35 µM
- GI50 [36]: > 35 µM
- TGI [36]: > 35 µM
- GI50 [37]: > 35 µM
- TGI [37]: > 35 µM
- GI50 [38]: > 35 µM
- TGI [38]: > 35 µM
- GI50 [39]: > 35 µM
- TGI [39]: > 35 µM
- GI50 [40]: > 35 µM
- TGI [40]: > 35 µM
- GI50 [41]: > 35 µM
- TGI [41]: > 35 µM
- GI50 [42]: > 35 µM
- TGI [42]: > 35 µM
- GI50 [43]: > 35 µM
- TGI [43]: > 35 µM
- GI50 [44]: > 35 µM
- TGI [44]: > 35 µM
- GI50 [45]: > 35 µM
- TGI [45]: > 35 µM
- GI50 [46]: > 35 µM
- TGI [46]: > 35 µM
- GI50 [47]: > 35 µM
- TGI [47]: > 35 µM
- GI50 [48]: > 35 µM
- TGI [48]: > 35 µM
- GI50 [49]: > 35 µM
- TGI [49]: > 35 µM
- GI50 [50]: > 35 µM
- TGI [50]: > 35 µM
- GI50 [51]: > 35 µM
- TGI [51]: > 35 µM
- GI50 [52]: > 35 µM
- TGI [52]: > 35 µM
- GI50 [53]: > 35 µM
- TGI [53]: > 35 µM
- GI50 [54]: > 35 µM
- TGI [54]: > 35 µM
- GI50 [55]: > 35 µM
- TGI [55]: > 35 µM

Structure (SMILES): Cc1c(-c2ccc(O)cc2)oc(=O)c2ccc(O)cc12
- GI50 [1]: 60 µM
- TGI [1]: > 100 µM
- GI50 [2]: 32.8 µM
- TGI [2]: > 100 µM
- GI50 [3]: 32.7 µM
- TGI [3]: > 100 µM
- GI50 [4]: > 100 µM
- TGI [4]: > 100 µM
- GI50 [5]: > 100 µM
- TGI [5]: > 100 µM
- GI50 [6]: 47.6 µM
- TGI [6]: > 100 µM
- GI50 [7]: > 100 µM
- TGI [7]: > 100 µM
- GI50 [8]: 38.5 µM
- TGI [8]: > 100 µM
- GI50 [9]: 66.3 µM
- TGI [9]: > 100 µM
- GI50 [10]: 60.9 µM
- TGI [10]: > 100 µM
- GI50 [11]: 27.4 µM
- TGI [11]: > 100 µM
- GI50 [12]: > 100 µM
- TGI [12]: > 100 µM
- GI50 [13]: 36.7 µM
- TGI [13]: > 100 µM
- GI50 [14]: 35.6 µM
- TGI [14]: > 100 µM
- GI50 [15]: 66.6 µM
- TGI [15]: > 100 µM
- GI50 [16]: 35.7 µM
- TGI [16]: > 100 µM
- GI50 [17]: 56.4 µM
- TGI [17]: > 100 µM
- GI50 [18]: 55.4 µM
- TGI [18]: > 100 µM
- GI50 [56]: > 100 µM
- TGI [56]: > 100 µM
- GI50 [19]: 51.5 µM
- TGI [19]: > 100 µM
- GI50 [20]: > 100 µM
- TGI [20]: > 100 µM
- GI50 [21]: 40.3 µM
- TGI [21]: > 100 µM
- GI50 [22]: > 100 µM
- TGI [22]: > 100 µM
- GI50 [23]: 83.8 µM
- TGI [23]: > 100 µM
- GI50 [24]: 63.2 µM
- TGI [24]: > 100 µM
- GI50 [25]: 50.7 µM
- TGI [25]: > 100 µM
- GI50 [26]: > 100 µM
- TGI [26]: > 100 µM
- GI50 [27]: 43.5 µM
- TGI [27]: > 100 µM
- GI50 [28]: 35.2 µM
- TGI [28]: > 100 µM
- GI50 [30]: > 100 µM
- TGI [30]: > 100 µM
- GI50 [31]: 89.8 µM
- TGI [31]: > 100 µM
- GI50 [32]: 22.4 µM
- TGI [32]: > 100 µM
- GI50 [33]: 36.9 µM
- TGI [33]: > 100 µM
- GI50 [34]: 41.6 µM
- TGI [34]: > 100 µM
- GI50 [36]: 31 µM
- TGI [36]: > 100 µM
- GI50 [57]: 42.8 µM
- TGI [57]: 98.1 µM
- GI50 [37]: 38 µM
- TGI [37]: > 100 µM
- GI50 [38]: 33.3 µM
- TGI [38]: > 100 µM
- GI50 [39]: 69.9 µM
- TGI [39]: > 100 µM
- GI50 [40]: 73.3 µM
- TGI [40]: > 100 µM
- GI50 [41]: > 100 µM
- TGI [41]: > 100 µM
- GI50 [42]: 63.8 µM
- TGI [42]: > 100 µM
- GI50 [43]: 75.8 µM
- TGI [43]: > 100 µM
- GI50 [44]: 32.6 µM
- TGI [44]: > 100 µM
- GI50 [46]: > 100 µM
- TGI [46]: > 100 µM
- GI50 [47]: > 100 µM
- TGI [47]: > 100 µM
- GI50 [48]: 73.7 µM
- TGI [48]: > 100 µM
- GI50 [49]: 87.6 µM
- TGI [49]: > 100 µM
- GI50 [50]: 45.3 µM
- TGI [50]: > 100 µM
- GI50 [51]: 54.6 µM
- TGI [51]: > 100 µM
- GI50 [52]: 55.4 µM
- TGI [52]: > 100 µM
- GI50 [53]: 49.7 µM
- TGI [53]: > 100 µM
- GI50 [54]: 15.4 µM
- TGI [54]: 85.2 µM
- GI50 [58]: > 100 µM
- TGI [58]: > 100 µM
- GI50 [55]: 41 µM
- TGI [55]: > 100 µM
